This is an account of results in patent US11807650B2, “NMDA receptor modulators and uses thereof” (Novartis AG, priority 2016, dated 2023).

Where only a bound is given, the exact number is not on record here.

For the test, the target named is T1, human GRIN1 (transcript variant NR1-3) and GRIN2D expressed in Xenopus oocytes (Homo sapiens, UniProt O15399).
T1 construct: GenScript (GRIN2D synthesis) SC115601; host or cells: Xenopus oocytes injected with cRNA (1 GluN1 : 2 GluN2)
T1 sequence (O15399 28-1336, other chains not shown): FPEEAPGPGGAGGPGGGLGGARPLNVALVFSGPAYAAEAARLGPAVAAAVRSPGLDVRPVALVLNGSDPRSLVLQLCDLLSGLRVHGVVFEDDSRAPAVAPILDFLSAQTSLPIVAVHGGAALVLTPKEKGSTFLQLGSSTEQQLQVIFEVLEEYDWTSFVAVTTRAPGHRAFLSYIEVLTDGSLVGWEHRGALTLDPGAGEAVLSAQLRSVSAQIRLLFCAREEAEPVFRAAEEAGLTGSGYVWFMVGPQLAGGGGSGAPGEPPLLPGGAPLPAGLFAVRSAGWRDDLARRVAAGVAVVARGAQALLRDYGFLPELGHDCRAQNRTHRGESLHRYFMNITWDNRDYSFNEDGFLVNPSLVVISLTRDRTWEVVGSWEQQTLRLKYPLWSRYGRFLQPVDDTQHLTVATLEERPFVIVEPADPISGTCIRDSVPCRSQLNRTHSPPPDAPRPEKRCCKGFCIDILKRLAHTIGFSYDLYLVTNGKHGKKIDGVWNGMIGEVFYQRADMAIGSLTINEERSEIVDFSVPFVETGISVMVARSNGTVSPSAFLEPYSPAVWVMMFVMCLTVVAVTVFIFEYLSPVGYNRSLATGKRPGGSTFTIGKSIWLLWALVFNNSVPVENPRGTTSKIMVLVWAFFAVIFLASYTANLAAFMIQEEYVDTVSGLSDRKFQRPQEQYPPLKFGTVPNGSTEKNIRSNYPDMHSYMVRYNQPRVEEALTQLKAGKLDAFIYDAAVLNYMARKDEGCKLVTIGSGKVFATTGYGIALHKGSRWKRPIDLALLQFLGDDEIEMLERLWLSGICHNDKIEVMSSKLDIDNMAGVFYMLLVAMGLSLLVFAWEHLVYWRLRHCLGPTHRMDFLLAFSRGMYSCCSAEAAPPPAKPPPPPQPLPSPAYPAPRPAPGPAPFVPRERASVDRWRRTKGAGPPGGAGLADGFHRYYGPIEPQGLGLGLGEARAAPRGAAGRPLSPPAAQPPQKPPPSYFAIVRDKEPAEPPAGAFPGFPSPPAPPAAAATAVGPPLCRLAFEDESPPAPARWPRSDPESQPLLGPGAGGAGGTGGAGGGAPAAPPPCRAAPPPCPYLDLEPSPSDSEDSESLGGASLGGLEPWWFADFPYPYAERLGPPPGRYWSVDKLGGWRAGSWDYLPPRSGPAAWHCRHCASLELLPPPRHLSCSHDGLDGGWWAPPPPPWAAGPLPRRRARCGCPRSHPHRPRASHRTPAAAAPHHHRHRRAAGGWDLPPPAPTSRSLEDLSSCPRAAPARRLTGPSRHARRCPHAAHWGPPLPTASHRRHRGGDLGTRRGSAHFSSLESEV
Kind of test: NR2D oocyte potentiation assay (two-electrode voltage clamp). Format: cell-based. The note with it: 10 uM test compound; glutamate and glycine 10 μM each; holding potential −40 mV. The method, then: NR2D Oocyte Potentiation Assay. Xenopus oocytes (Xenopus 1, Dexter, Mich.) were initially separated from the lobes of an ovary using surgical forceps; they were then defolliculated by constant agitation at room temperature in OR-2 buffer (82.5 mM NaCl; 2.5 mM KCl; 1 mM MgCl2; 5 mM HEPES; pH 7.4) containing 2 mg/ml collagenase Type 1 (Fisher Scientific, USA) for 1.5-2 hours. The cells were then gently aspirated with a Pasteur pipette to remove the follicular tissue; this was followed by washing three times with OR-2 to remove all traces of collagenase. The oocytes were then washed in ND-96 (96 mM NaCl, 2 mM KCl, 1.8 mM CaCl2, 1 mM MgCl2, 5 mM HEPES, 50 ng/L gentamycin, 100 units/ml penicillin and 100 μg/ml streptomycin; pH 7.6) three times and this was followed by incubation in ND-96 at room temperature with mild agitation for 15 minutes; subsequently they were stored for at least 2 hours at 16° C. before sorting and selection for injection. Oocytes selected for injection were incubated overnight in ND-96 at 16° C.
The human GRIN1 (transcript variant NR1-3 (Origene, SKU #: SC115601, Rockville, Md.) and GRIN2D (NCBI locus NM_000836, sequence optimized and synthesized by GenScript) were linearized and transcribed using the mMessage mMachine kit (Life Technologies) and promoters SP6 (for GluN1) and T7 (for GluN2D). cRNAs were mixed together at a ratio of 1 GluN1:2 GluN2. Each oocyte was injected with 50 nL of cRNA and stored in ND96 (96 mM NaCl, 2 mM KCl, 1.8 mM CaCl2, 1 mM MgCl2, 5 mM HEPES, 50 ng/L gentamycin, 100 units/ml penicillin and 100 μg/ml streptomycin; pH 7.6) at 16° C. for 72 h prior to recording.
Currents were recorded using a two-electrode voltage-clamp amplifier (Oocyte Clamp OC-725C; Warner Instrument Corp, Hamden, Conn.), and digitized using Digidata 1550A and pClamp (v. 10) software (Molecular Devices, Sunnyvale, Calif.). Electrodes were filled with 3 M KCl and had resistances that ranged from 0.2-1 MO. All measurements were made at a holding potential of −40 mV. Cells were continuously perfused with oocyte recording solution containing 90 mM NaCl, 1 mM KCl, 0.5 mM BaCl2, and 10 mM HEPES (Ph 7.4). Glutamate and Glycine (co-agonists) were applied at respective concentrations of 10 μM each. Co-agonists were applied until a plateau was reached, and test compounds were then added in the continued presence of co-agonists until a new plateau was reached. After the addition of the last test compound concentration, the oocyte was washed with oocyte recording buffer. Fraction of current remaining was calculated as [(current in presence of test compound−background current)/(co-agonist current−background current)] and IC50 values were computed using Prism 6.0 (Graphpad).
In general terms: Two-electrode voltage clamp holds a large cell at a set potential and records current.
In the case of `C[C@@H]1CSc2nc(-c3cnc(C(C)(C)C)nc3)c(C#N)c(=O)n2C1` [Example 74, (S)-8-(2-(tert-butyl)pyrimidin-5-yl)-3-methyl-6-oxo-3,4-dihydro-2H,6H-pyrimido[2,1-b][1,3]thiazine-7-carbonitrile], the activation at 10 µM was in the range of 500 to 1000%.
Take `CC(C)(C)c1ncc(-c2nc3n(c(=O)c2C#N)CCCS3)cc1F` [Example 75, 8-(6-(tert-butyl)-5-fluoropyridin-3-yl)-6-oxo-3,4-dihydro-2H,6H-pyrimido[2,1-b][1,3]thiazine-7-carbonitrile]: the activation at 10 µM is more than 1000%.
Same read-out and setting: the same measure for `CC1CSc2nc(-c3cnc(C(C)(C)C)c(F)c3)c(C#N)c(=O)n2C1` (centres unmarked) [Example 76, 8-(6-(tert-butyl)-5-fluoropyridin-3-yl)-3-methyl-6-oxo-3,4-dihydro-2H,6H-pyrimido[2,1-b][1,3]thiazine-7-carbonitrile]: more than 1000%; for `CC(C)(C)c1ccc(-c2nc3n(c(=O)c2C#N)CCCO3)cn1` [Example 77, 8-(6-(tert-butyl)pyridin-3-yl)-6-oxo-3,4-dihydro-2H,6H-pyrimido[2,1-b][1,3]oxazine-7-carbonitrile]: 10 to 100%; for `CC(C)(C#N)c1ccc(-c2nc3n(c(=O)c2C#N)CCCS3)cn1` [Example 78, 8-(6-(2-cyanopropan-2-yl)pyridin-3-yl)-6-oxo-3,4-dihydro-2H,6H-pyrimido[2,1-b][1,3]thiazine-7-carbonitrile]: 10 to 100%.
Still for that read-out and setting: the same measure for `CC1CSc2nc(-c3ccc(C(C)(C)C#N)nc3)c(C#N)c(=O)n2C1` (centres unmarked) [Example 79, 8-[6-(1-cyano-1-methylethyl)pyridin-3-yl]-3-methyl-6-oxo-2H,3H,4H,6H-pyrimido[2,1-b] [1,3]thiazine-7-carbonitrile]: 100 to 500%; for `CC(C)C1CSc2nc(-c3ccc(C(C)(C)C)nc3)c(C#N)c(=O)n2C1` (centres unmarked) [Example 80, 8-(6-(tert-butyl)pyridin-3-yl)-3-isopropyl-6-oxo-3,4-dihydro-2H,6H-pyrimido[2,1-b][1,3]thiazine-7-carbonitrile]: 100 to 500%; for `CCC1CSc2nc(-c3ccc(C(C)(C)C)nc3)c(C#N)c(=O)n2C1` (centres unmarked) [Example 81, 8-(6-tert-butylpyridin-3-yl)-3-ethyl-6-oxo-2H,3H,4H, 6H-pyrimido [2,1-b][1,3] thiazine-7-carbonitrile]: more than 1000%.
Turning to `CCOC(=O)c1ccc(-c2nc3n(c(=O)c2C#N)CCCS3)cn1` [Example 82, ethyl 5-(7-cyano-6-oxo-3,4-dihydro-2H,6H-pyrimido[2,1-b][1,3]thiazin-8-yl)picolinate], the “NR2D Oocyte % Potentiation @ 10 uM” value was “Inhibitor”.
With `CC(C)(O)c1ccc(-c2nc3n(c(=O)c2C#N)CCCS3)cn1` [Example 83, 8-(6-(2-hydroxypropan-2-yl)pyridin-3-yl)-6-oxo-3,4-dihydro-2H,6H-pyrimido[2,1-b][1,3]thiazine-7-carbonitrile], the activation at 10 µM is 10 to 100%.
Same read-out and setting: the same measure for `CCOC(=O)c1ccc(-c2nc3n(c(=O)c2C#N)CC(C)CS3)cn1` (centres unmarked) [Example 84, ethyl 5-(7-cyano-3-methyl-6-oxo-3,4-dihydro-2H,6H-pyrimido[2,1-b][1,3]thiazin-8-yl)picolinate]: less than 10%; for `CC1CSc2nc(-c3ccc(C(C)(C)O)nc3)c(C#N)c(=O)n2C1` (centres unmarked) [Example 85, 8-(6-(2-hydroxypropan-2-yl)pyridin-3-yl)-3-methyl-6-oxo-3,4-dihydro-2H,6H-pyrimido[2,1-b][1,3]thiazine-7-carbonitrile]: 10 to 100%.
On the same count and under the same terms, in the case of `COC(=O)C1CSc2nc(-c3ccc(C(C)(C)C)nc3)c(C#N)c(=O)n2C1` (centres unmarked) [Example 86, methyl 8-(6-(tert-butyl)pyridin-3-yl)-7-cyano-6-oxo-3,4-dihydro-2H,6H-pyrimido[2,1-b][1,3]thiazine-3-carboxylate] it was 100 to 500%; in that of `CC(C)(C)c1ccc(-c2nc3n(c(=O)c2C#N)CC(CO)CS3)cn1` (centres unmarked) [Example 87, 8-(6-(tert-butyl)pyridin-3-yl)-3-(hydroxymethyl)-6-oxo-3,4-dihydro-2H,6H-pyrimido[2,1-b][1,3]thiazine-7-carbonitrile], 500 to 1000%.
Same read-out and setting: in the case of `CC(C)(C)c1ccc(-c2nc3n(c(=O)c2C#N)CC(CF)CS3)cn1` (centres unmarked) [Example 88, 8-(6-(tert-butyl)pyridin-3-yl)-3-(fluoromethyl)-6-oxo-3,4-dihydro-2H,6H-pyrimido[2,1-b][1,3]thiazine-7-carbonitrile] it was 500 to 1000%.
Consider `COC(=O)C1CSc2nc(-c3cnc(C(C)(C)C)nc3)c(C#N)c(=O)n2C1` (centres unmarked) [Example 89, methyl 8-(2-(tert-butyl)pyrimidin-5-yl)-7-cyano-6-oxo-3,4-dihydro-2H,6H-pyrimido[2,1-b][1,3]thiazine-3-carboxylate], for which the activation at 10 µM lay within 100 to 500%.
Same read-out and setting: the same measure for `CC(C)(C)c1ncc(-c2nc3n(c(=O)c2C#N)CC(CO)CS3)cn1` (centres unmarked) [Example 90, 8-(2-(tert-butyl)pyrimidin-5-yl)-3-(hydroxymethyl)-6-oxo-3,4-dihydro-2H,6H-pyrimido[2,1-b][1,3]thiazine-7-carbonitrile]: 500 to 1000%; for `CC(C)(C)c1ncc(-c2nc3n(c(=O)c2C#N)CC(CF)CS3)cn1` (centres unmarked) [Example 91, 8-(2-(tert-butyl)pyrimidin-5-yl)-3-(fluoromethyl)-6-oxo-3,4-dihydro-2H,6H-pyrimido[2,1-b][1,3]thiazine-7-carbonitrile]: 500 to 1000%; for `CC(C)(C)c1ncc(-c2nc3n(c(=O)c2C#N)CC(CO)CS3)cc1F` (centres unmarked) [Example 92, 8-(6-(tert-butyl)-5-fluoropyridin-3-yl)-3-(hydroxymethyl)-6-oxo-3,4-dihydro-2H,6H-pyrimido[2,1-b][1,3]thiazine-7-carbonitrile]: more than 1000%.
Still for that read-out and setting: the same measure for `CC1CCn2c(nc(-c3ccc(C(C)(C)C)nc3)c(C#N)c2=O)S1` (centres unmarked) [Example 93, 8-(6-(tert-butyl)pyridin-3-yl)-2-methyl-6-oxo-3,4-dihydro-2H,6H-pyrimido[2,1-b][1,3]thiazine-7-carbonitrile]: 500 to 1000%.
The same measure, in the same setting: the same measure for `CN1CCCn2c1nc(-c1ccc(C(C)(C)C)nc1)c(C#N)c2=O` [Example 94, 8-(6-(tert-butyl)pyridin-3-yl)-1-methyl-6-oxo-1,3,4,6-tetrahydro-2H-pyrimido[1,2-a]pyrimidine-7-carbonitrile]: 100 to 500%.
Take `C=C(C)c1ccc(-c2nc3n(c(=O)c2C#N)CCCS3)cn1` [Example 95, 6-oxo-8-(6-(prop-1-en-2-yl)pyridin-3-yl)-3,4-dihydro-2H,6H-pyrimido[2,1-b][1,3]thiazine-7-carbonitrile]: the activation at 10 µM lay in the range of 100 to 500%.
As to `C[C@H]1CSc2cc(-c3ccc(C(C)(C)C)nc3)c(C#N)c(=O)n2C1` [Example 96, (R)-8-(6-(tert-butyl)pyridin-3-yl)-3-methyl-6-oxo-3,4-dihydro-2H,6H-pyrido[2,1-b][1,3]thiazine-7-carbonitrile], the activation at 10 µM was more than 1000%.
Still for that read-out and setting: the same measure for `C[C@@H]1CSc2cc(-c3ccc(C(C)(C)C)nc3)c(C#N)c(=O)n2C1` [Example 97, (S)-8-(6-(tert-butyl)pyridin-3-yl)-3-methyl-6-oxo-3,4-dihydro-2H,6H-pyrido[2,1-b][1,3]thiazine-7-carbonitrile]: more than 1000%.
Same read-out and setting: in the case of `C[C@H]1CSc2nc(-c3cnc(C(C)(C)C)c(F)c3)c(C#N)c(=O)n2C1` [Example 98, (R)-8-(6-(tert-butyl)-5-fluoropyridin-3-yl)-3-methyl-6-oxo-3,4-dihydro-2H,6H-pyrimido[2,1-b][1,3]thiazine-7-carbonitrile] it was more than 1000%.
Same read-out and setting: in the case of `C[C@@H]1CSc2nc(-c3cnc(C(C)(C)C)c(F)c3)c(C#N)c(=O)n2C1` [Example 99, (S)-8-(6-(tert-butyl)-5-fluoropyridin-3-yl)-3-methyl-6-oxo-3,4-dihydro-2H,6H-pyrimido[2,1-b][1,3]thiazine-7-carbonitrile] it was more than 1000%.
